These results are taken from PubChem BioAssay (NCI).

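Step 1: Grow cells in 96-well plates. Step 2: Expose to compound for 48 hours at 5 concentrations. Step 3: Interpolate endpoints linearly; if unreached, use highest concentration. Here, GI50 denotes the concentration required for 50% inhibition of growth. TGI marks complete inhibition of growth.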

Some test systems named below: A498 renal; EKVX NSCLC; KM12 colon; RPMI-8226 leukemia; NCI-H522 lung; COLO 205 colon; MALME-3M melanoma; MOLT-4 leukemia; MDA-MB-231 breast; HOP-62 NSCLC.
Test in all cases: growth of human tumour cells (NCI), 48 h

`CC1=NN(c2cc(Cl)c(S(=O)(=O)O)cc2Cl)C2(C1)C(Cl)C(=O)N2c1nc2ccccc2s1` (configuration not stated): the TGI in the experiment with A498 renal is above 100 µM; in the experiment with EKVX NSCLC, above 100 µM; in the experiment on KM12 colon it was above 100 µM; in the experiment on RPMI-8226 leukemia it was above 100 µM; in the experiment on NCI-H522 lung, 71.2 µM; in the experiment on COLO 205 colon, above 100 µM. The TGI with MALME-3M melanoma, in the experiment with MOLT-4 leukemia and in the experiment on MDA-MB-231 breast was above 100 µM in each case.
`FC(F)(Sc1ncccn1)c1nc2ccccc2o1`: the TGI with A498 renal, with HOP-62 NSCLC, in the experiment with KM12 colon, with RPMI-8226 leukemia, with NCI-H522 lung and in the experiment on COLO 205 colon was above 100 µM in each case. Moreover, the TGI in the experiment on MALME-3M melanoma, in the experiment with MOLT-4 leukemia and in the experiment with MDA-MB-231 breast was above 100 µM throughout.
Turning to `Cc1cc(C)n(C(=CC(=O)C(Cl)Cl)n2nc(C)cc2C)n1`, the TGI in the experiment with A498 renal was above 100 µM; in the experiment on HOP-62 NSCLC, 17.5 µM; in the experiment with KM12 colon, 24 µM; in the experiment with RPMI-8226 leukemia, 3.69 µM; in the experiment on NCI-H522 lung, 7.76 µM; with COLO 205 colon, 40 µM. Moreover, the TGI with MALME-3M melanoma came out at 15.7 µM; with MOLT-4 leukemia, 0.806 µM; in the experiment on MDA-MB-231 breast, 12.3 µM.
In the case of `COc1cc(-c2cc(OC)c(OC)c3ccc(Br)cc23)c2cc(Br)ccc2c1OC`, the TGI was 44.9 µM in the experiment on A498 renal; above 100 µM in the experiment on EKVX NSCLC; 44.7 µM in the experiment on HOP-62 NSCLC; 51.7 µM with RPMI-8226 leukemia; 72.1 µM in the experiment with NCI-H522 lung; above 100 µM with COLO 205 colon. Further, the TGI in the experiment with MALME-3M melanoma is 52.9 µM; in the experiment on MOLT-4 leukemia, above 100 µM; in the experiment with MDA-MB-231 breast, 49.5 µM.
For the compound `COC1=C(OC)C(=O)C(Cc2c(-c3ccccc3)nc3sc(Cl)cn23)=C(C)C1=O`, the TGI in the experiment on A498 renal came out at 47.2 µM; with EKVX NSCLC it was 41.6 µM; in the experiment on HOP-62 NSCLC it was 38.2 µM; in the experiment with KM12 colon, 41 µM; in the experiment with RPMI-8226 leukemia, 34.9 µM; in the experiment on NCI-H522 lung, 30.8 µM. For the same compound, the TGI in the experiment on COLO 205 colon was 33.5 µM; in the experiment with MALME-3M melanoma, 33.2 µM; in the experiment with MDA-MB-231 breast, 24.6 µM.
Regarding `CC1(O)CC23CC(O)C4(O)C(CC(O)C4(C)C)C(C)(O)C2CCC1C3O` (configuration not stated), the TGI with A498 renal, with EKVX NSCLC, in the experiment with KM12 colon, in the experiment on NCI-H522 lung, with COLO 205 colon and in the experiment on MALME-3M melanoma was above 100 µM throughout. Besides, the TGI in the experiment on MOLT-4 leukemia and in the experiment with MDA-MB-231 breast was above 100 µM throughout.
Consider `N#Cc1cc2c(n(C3OC(CO)C(O)C(O)C3O)c1=S)CCC2` (configuration not stated), for which the TGI in the experiment on A498 renal, in the experiment with HOP-62 NSCLC, in the experiment on KM12 colon, with RPMI-8226 leukemia, with NCI-H522 lung and in the experiment with COLO 205 colon was above 100 µM throughout. In addition, the TGI in the experiment with MALME-3M melanoma, with MOLT-4 leukemia and with MDA-MB-231 breast was above 100 µM throughout.
For `CC1CC(C)(C)CC(OCCN2CCCCC2)(c2ccccc2)C1` (configuration not stated), the TGI with A498 renal was 26.1 µM; in the experiment with EKVX NSCLC, 19.5 µM; in the experiment with HOP-62 NSCLC it was 26.5 µM; in the experiment on KM12 colon it was 21.4 µM; with RPMI-8226 leukemia, 20.3 µM; in the experiment with NCI-H522 lung it was 21.6 µM. Moreover, the values for the TGI with COLO 205 colon, with MALME-3M melanoma and in the experiment on MDA-MB-231 breast were 21.8 µM, 23.4 µM and 24.9 µM, respectively.
For the compound `COc1ccc(C2CC(c3cccc(Nc4ccncc4)c3)=NN2c2ccccc2)cc1` (configuration not stated), the GI50 with A498 renal was 1.41 µM; with EKVX NSCLC it was 2.73 µM; in the experiment with HOP-62 NSCLC, 2.25 µM; in the experiment on KM12 colon, 1.79 µM; with NCI-H522 lung it was 1.81 µM; with COLO 205 colon it was 2.66 µM. Further, the GI50 in the experiment on MALME-3M melanoma was 1.62 µM; with MOLT-4 leukemia it was 2.07 µM; in the experiment with MDA-MB-231 breast, 1.62 µM. For the same compound, the TGI in the experiment on A498 renal was 9.69 µM; with EKVX NSCLC, 10.2 µM; in the experiment on HOP-62 NSCLC, 5.81 µM; in the experiment on KM12 colon it was 3.5 µM; with NCI-H522 lung, 3.81 µM; in the experiment with COLO 205 colon, 6.14 µM. Also, the TGI is 3.08 µM in the experiment with MALME-3M melanoma, 4.63 µM in the experiment with MOLT-4 leukemia and 3.04 µM in the experiment with MDA-MB-231 breast.
In the case of `C/C(=C\C(=O)O)C(=O)N(C)c1ccccc1I`, the TGI in the experiment with A498 renal, with EKVX NSCLC, in the experiment with HOP-62 NSCLC, with KM12 colon, with RPMI-8226 leukemia and with COLO 205 colon was above 100 µM in each case. The TGI with MALME-3M melanoma, in the experiment with MOLT-4 leukemia and in the experiment with MDA-MB-231 breast was above 100 µM throughout.
On to `COC(=O)c1sc2c(Cl)c(Cl)sc2c1Cl`, for which the TGI in the experiment on A498 renal, in the experiment with EKVX NSCLC, in the experiment on HOP-62 NSCLC, in the experiment on KM12 colon, in the experiment with NCI-H522 lung and with COLO 205 colon was above 100 µM throughout. The TGI in the experiment on MALME-3M melanoma, in the experiment with MOLT-4 leukemia and with MDA-MB-231 breast was above 100 µM in each case.
